Measured values from patent US7291217B2, “Non-toxic corrosion-protection pigments based on rare earth elements” (University of Dayton, priority 2002, dated 2007).
“And” between values parts separate entries of the source, which are not always exact repeats. Equal values may be shown once.

Columns and labels:
[1] = Cyclic Prohesion accelerated corrosion test (ASTM G-85.5) of PVB wash primer containing the pigment, rated by ASTM D-1654; details: ASTM D-1654 rating; for G-85 Proc. A: failure at scribe; for G-85 Proc. B: unscribed areas
Description: (§1) The corrosion-inhibiting performance of CeIV pigments was evaluated by incorporating them into primer paint formulations. […] The wash primer is composed of a resin, an acid, a corrosion-inhibiting pigment, powdered talc, and carbon lampblack. The acid content of this wash primer provides a rigorous initial test of the stability and performance of the pigments. Other, more benign, polymer-based binder and resin systems might not separate the compounds based on their performance as effectively or as rapidly.
(§2) PVB was used exclusively throughout testing to avoid preparation and compositional complications during analysis of pigment performance. However, the invention is not limited to the use of PVB.
(§3) A small amount (0.2 g) of powdered talc (magnesium silicate) “filler” was added. Lampblack was not added to these samples. These components were mixed thoroughly by hand and 3.8 grams of phosphoric acid diluent added with further mixing. This rough processing allowed direct comparisons of pigment performance to be made without complications due to powder treatments, modifications, and additives.
(§4) This is not the conventional paint application procedure for aluminum alloys. Under normal service conditions, aluminum alloys are first subjected to a hexavalent chromium-containing conversion coating prior to primer application. However, the conversion coating was omitted so that the performance of the pigment alone could be evaluated and not the synergistic effects of hexavalent chromium (in the conversion coating) or even of barrier films (in the phosphate or anodized coatings).
(§5) This accelerated corrosion test exposes samples to a constant salt-water fog and is a de facto test of solubility for corrosion inhibitors. […] This accelerated corrosion test exposes samples to a cycle of fog of dilute salt and ammonium sulfate at room temperature followed by forced-air drying at an elevated temperature.
(§6) After the paint dried for 24 hours, each plate was scribed with an X and the plate edges were sealed with PVC tape to eliminate corrosion edge effects.
(§7) Two visual observations are associated with this rating test. Procedure A involves a rating of the failure at the scribe—the representative creepage of corrosion away from the scribe. […] In this way, not only the bulk corrosion-inhibiting action of a pigment through the binder can be rated, but also its “throwing power”.

[2] = Static salt fog accelerated corrosion test (ASTM B-117) of PVB wash primer containing the pigment, rated by ASTM D-1654; details: ASTM D-1654 rating; for B-117 Proc. A: failure at scribe; for B-117 Proc. B: unscribed areas
Description: as §1, §2, §3, §4, §5, §6, §7

[3] = reduction to the trivalent ion, cited from earlier work; for calculated redox potential: in acidic solution, Nugent et al. 1971; for oxidation-reduction potential: in acid solution (pH 0)
[4] = in water; resulting from the reported solubility product; cited from earlier work
[5] = pH change on placing the compound into deionized water of pH 7; type: physicochemical; details: simple laboratory experiment
Description: A simple laboratory experiment confirms this effect. […] However, if icosahedral Ce(NO3)6^2− (note that this ion contains no hydroxide) is placed into deionized water of pH 7, a quite remarkable pH drop to −1 can be observed. The released tetravalent cerium ions will scavenge virtually all of the available OH^− ions in solution (possibly even degrading H2O itself to obtain OH^−), resulting in this dramatic pH drop.

[6] = 2024-T3, 117 h, inhibitor conc. 1.86 × 10^−3 M (25% of Cr), two cells per column
[7] = 7075-T6, 117 h, inhibitor conc. 1.86 × 10^−3 M (25% of Cr), two cells per column
[8] = 2024-T3, 139 h, inhibitor conc. 7.44 × 10^−4 M (10% of Cr), sample and duplicate
[9] = 7075-T6, 139 h, inhibitor conc. 7.44 × 10^−4 M (10% of Cr), sample and duplicate
[10] = 2024-T3, 117 h, inhibitor conc. 7.44 × 10^−4 M (10% of Cr), sample and duplicate
[11] = 7075-T6, 117 h, inhibitor conc. 7.44 × 10^−4 M (10% of Cr), sample and duplicate
[12] = 2024-T3, 144 h, inhibitor conc. 5.2 × 10^−4 M (7% of Cr), sample and duplicate
[13] = 7075-T6, 144 h, inhibitor conc. 5.2 × 10^−4 M (7% of Cr), sample and duplicate
[14] = 2024-T3, 144 h, inhibitor conc. 3.72 × 10^−3 M (50% of Cr), sample and duplicate
[15] = 7075-T6, 144 h, inhibitor conc. 3.72 × 10^−3 M (50% of Cr), sample and duplicate
[16] = 2024-T3, 139 h, inhibitor conc. 3.72 × 10^−3 M (50% of Cr), sample and duplicate
[17] = 7075-T6, 139 h, inhibitor conc. 3.72 × 10^−3 M (50% of Cr), sample and duplicate

Compound: CCC[N+](CCC)(CCC)CCC.CCC[N+](CCC)(CCC)CCC.O=[N+]([O-])[O-].O=[N+]([O-])[O-].O=[N+]([O-])[O-].O=[N+]([O-])[O-].O=[N+]([O-])[O-].O=[N+]([O-])[O-].[Ce+4] [Nitrate/NPr4^+]
- G-85 Proc. A [1, 6]: 9 and 10
- G-85 Proc. A [1, 7]: 9 and 8
- G-85 Proc. B [1, 6]: 8 and 9
- G-85 Proc. B [1, 7]: 7
- B-117 Proc. A [2, 6]: 7
- B-117 Proc. A [2, 7]: 7
- B-117 Proc. B [2, 6]: 7 and 6
- B-117 Proc. B [2, 7]: 6

Compound: [Pr+4] [Pr^+4]
- calculated redox potential [3]: 3.2 V

Compound: [Ce+4].[OH-].[OH-].[OH-].[OH-] [ceric hydroxide, reference compound]
- cerium solubility [4]: approximately 5×10^−12 moles/liter Ce^+4
- pH after placing into deionized water of pH 7 [5]: only a minor pH change

Compound: O=[N+]([O-])O.O=[N+]([O-])O.O=[N+]([O-])O.O=[N+]([O-])O.O=[N+]([O-])O.O=[N+]([O-])O.[Ce] [Ce(NO3)6^2−]
- pH after placing into deionized water of pH 7 [5]: −1

Compound: calcium 11-phosphotungstocerate
- G-85 Proc. A [1, 8]: 8 and 7
- G-85 Proc. A [1, 9]: 6
- G-85 Proc. B [1, 8]: 8 and 7
- G-85 Proc. B [1, 9]: 5 and 6
- B-117 Proc. A [2, 8]: 6 and 5
- B-117 Proc. A [2, 9]: 4
- B-117 Proc. B [2, 8]: 4
- B-117 Proc. B [2, 9]: 3

Compound: calcium 10-tungstocerate
- G-85 Proc. A [1, 10]: 7
- G-85 Proc. A [1, 11]: 7
- G-85 Proc. B [1, 10]: 6
- G-85 Proc. B [1, 11]: 6
- B-117 Proc. A [2, 10]: 3
- B-117 Proc. A [2, 11]: 2

Compound: [Tb+4] [Tb^+4]
- calculated redox potential [3]: 3.2 V

Compound: C[N+](C)(C)C.C[N+](C)(C)C.O=[N+]([O-])[O-].O=[N+]([O-])[O-].O=[N+]([O-])[O-].O=[N+]([O-])[O-].O=[N+]([O-])[O-].O=[N+]([O-])[O-].[Ce+4] [Nitrate/NMe4^+]
- G-85 Proc. A [1, 6]: 8 and 7
- G-85 Proc. A [1, 7]: 8 and 7
- G-85 Proc. B [1, 6]: 7 and 6
- G-85 Proc. B [1, 7]: 7 and 6

Compound: CCCCCCCC[N+](C)(CCCCCCCC)CCCCCCCC.CCCCCCCC[N+](C)(CCCCCCCC)CCCCCCCC.O=[N+]([O-])[O-].O=[N+]([O-])[O-].O=[N+]([O-])[O-].O=[N+]([O-])[O-].O=[N+]([O-])[O-].O=[N+]([O-])[O-].[Ce+4] [Nitrate/Adogen 464]
- G-85 Proc. A [1, 6]: 7
- G-85 Proc. A [1, 7]: 7
- G-85 Proc. B [1, 6]: 6
- G-85 Proc. B [1, 7]: 6
- B-117 Proc. A [2, 6]: 5
- B-117 Proc. A [2, 7]: 5
- B-117 Proc. B [2, 6]: 5
- B-117 Proc. B [2, 7]: 3 and 5

Compound: CC[N+](CC)(CC)CC.CC[N+](CC)(CC)CC.O=[N+]([O-])[O-].O=[N+]([O-])[O-].O=[N+]([O-])[O-].O=[N+]([O-])[O-].O=[N+]([O-])[O-].O=[N+]([O-])[O-].[Ce+4] [Nitrate/NEt4^+]
- G-85 Proc. A [1, 6]: 9 and 10
- G-85 Proc. A [1, 7]: 10
- G-85 Proc. B [1, 6]: 7 and 8
- G-85 Proc. B [1, 7]: 8
- B-117 Proc. A [2, 6]: 6
- B-117 Proc. A [2, 7]: 6 and 5
- B-117 Proc. B [2, 6]: 3
- B-117 Proc. B [2, 7]: 4

Compound: calcium 12-molybdocerate
- G-85 Proc. A [1, 12]: 8 and 7
- G-85 Proc. A [1, 13]: 8 and 7
- G-85 Proc. B [1, 12]: 6
- G-85 Proc. B [1, 13]: 7 and 5
- B-117 Proc. A [2, 12]: 6 and 7
- B-117 Proc. A [2, 13]: 7
- B-117 Proc. B [2, 12]: 4 and 5
- B-117 Proc. B [2, 13]: 6

Compound: CCCCC[N+](CCCCC)(CCCCC)CCCCC.CCCCC[N+](CCCCC)(CCCCC)CCCCC.O=[N+]([O-])[O-].O=[N+]([O-])[O-].O=[N+]([O-])[O-].O=[N+]([O-])[O-].O=[N+]([O-])[O-].O=[N+]([O-])[O-].[Ce+4] [Nitrate/NPe4^+]
- G-85 Proc. A [1, 6]: 9
- G-85 Proc. A [1, 7]: 9
- G-85 Proc. B [1, 6]: 8
- G-85 Proc. B [1, 7]: 7
- B-117 Proc. A [2, 6]: 6
- B-117 Proc. A [2, 7]: 6
- B-117 Proc. B [2, 6]: 5
- B-117 Proc. B [2, 7]: 6

Compound: lithium periodatocerate
- G-85 Proc. A [1, 14]: 7
- G-85 Proc. A [1, 15]: 7
- G-85 Proc. B [1, 14]: 7
- G-85 Proc. B [1, 15]: 7
- B-117 Proc. A [2, 14]: 6 and 5
- B-117 Proc. A [2, 15]: 4
- B-117 Proc. B [2, 14]: 6 and 5
- B-117 Proc. B [2, 15]: 2 and 3

Compound: CCCC[N+](CCCC)(CCCC)CCCC.CCCC[N+](CCCC)(CCCC)CCCC.O=[N+]([O-])[O-].O=[N+]([O-])[O-].O=[N+]([O-])[O-].O=[N+]([O-])[O-].O=[N+]([O-])[O-].O=[N+]([O-])[O-].[Ce+4] [Nitrate/NBu4^+]
- G-85 Proc. A [1, 6]: 9
- G-85 Proc. A [1, 7]: 9
- G-85 Proc. B [1, 6]: 8
- G-85 Proc. B [1, 7]: 8
- B-117 Proc. A [2, 6]: 7
- B-117 Proc. A [2, 7]: 7 and 6
- B-117 Proc. B [2, 6]: 5 and 6
- B-117 Proc. B [2, 7]: 6

Compound: [Cr+6] [Cr^+6, reference compound]
- oxidation-reduction potential [3]: 1.36 V

Compound: ammonium 18-vanadatocerate
- G-85 Proc. A [1, 16]: 7 and 8
- G-85 Proc. A [1, 17]: 8
- G-85 Proc. B [1, 16]: 6 and 7
- G-85 Proc. B [1, 17]: 6 and 7
- B-117 Proc. A [2, 16]: 7
- B-117 Proc. A [2, 17]: 7
- B-117 Proc. B [2, 16]: 6
- B-117 Proc. B [2, 17]: 6

Compound: magnesium 11-phosphotungstocerate
- G-85 Proc. A [1, 8]: 7
- G-85 Proc. A [1, 9]: 7
- G-85 Proc. B [1, 8]: 6
- G-85 Proc. B [1, 9]: 6
- B-117 Proc. A [2, 8]: 6
- B-117 Proc. A [2, 9]: 5
- B-117 Proc. B [2, 8]: 5
- B-117 Proc. B [2, 9]: 5

Compound: magnesium 10-tungstocerate
- G-85 Proc. A [1, 10]: 9
- G-85 Proc. A [1, 11]: 8
- G-85 Proc. B [1, 10]: 8
- G-85 Proc. B [1, 11]: 7
- B-117 Proc. A [2, 10]: 5
- B-117 Proc. A [2, 11]: 5 and 4
- B-117 Proc. B [2, 10]: 2
- B-117 Proc. B [2, 11]: 2

Compound: [Ce+4] [Ce^+4]
- oxidation-reduction potential [3]: 1.72 V
